Experimental data: patent US20250250298A1, “ONCOLYTIC PEPTIDE AND USE THEREOF” (Rise Biopharmaceuticals Inc., priority 2022, published 2025)
Where a SMILES comes first, the peptide text is derived from it.

Legend:
[1] = test system: EO771 (Murine mammary adenocarcinoma); experiment: MTT cytotoxicity, EO771; type: cell-based; conditions: EO771, 24 hours incubation
Source text: (§1) The MTT assay is a colorimetric method for measuring the activity of enzymes in living cells that reduces Thiazolyl blue tetrazolium bromide (MTT) to formazan dyes showing a purple color. In this embodiment, a colorimetric 3-(4.5-dimethylthiazol-2-yl)-2.5-diphenyltetrazodium bromide (MTT) viability assay was used to assess the in vitro cytotoxicity of oncolytic peptides.
(§2) The half inhibition concentration (IC50) is the concentration required by the oncolytic peptides to reach fifty percent inhibition. In one embodiment, the oncolytic peptides were used for IC50 test via MTT colorimetric assay.
(§3) Human lung cancer lines PC9 and A549 and murine pancreatic cancer cell line Panc02 were cultured in RPMI medium supplemented with 10% fetal bovine serum and antibiotic in this embodiment. Additionally, murine hepatoma cell line Hepa 1-6, murine melanoma cell line B16-F10, murine fibrosarcoma cell line MN-11, murine mammary cancer cell line E0771 and human diploid fibroblast (HFW) were cultured in DMEM medium supplemented with 10% fetal bovine serum and antibiotic. Cells were cultured in a humidified incubator containing 5% CO2 at 37° C.
(§4) All cancer cell lines were seeded in a 96-well plate with a concentration of 5000-8000 cells/100 μl/well and incubated for 24 hrs. After medium was removed, 100 μl fresh medium containing peptide (ranging from 50 μM to 0.8 μM) was added to the wells. Following 24 hours incubation, fresh medium with MTT (0.5 mg/ml) was replaced and incubated for 3 hours. After medium/MTT was removed, DMSO was added at 100 μl for dissolving the formazan crystal. Cell survival rate was calculated by measuring the absorbance at 540 nm using a Multi-labeled Microplate Reader (Sunrise™, TECAN).

[2] = test system: B16-F10 (Murine skin malignant melanoma); experiment: MTT cytotoxicity, B16-F10; type: cell-based; conditions: B16-F10, 24 hours incubation
Source text: as §1, §2, §3, §4

RBC (Human blood cell) = experiment: Cytotoxicity, RBC; type: cell-based
Source text: as §2

[3] = test system: A375 (human malignant melanoma); experiment: MTT cytotoxicity, A375; type: cell-based; conditions: A375, 24 hours incubation
Source text: as §1, §2, §4

[4] = test system: C9 (Human oral cancer cell); experiment: MTT cytotoxicity, C9; type: cell-based; conditions: C9, 24 hours incubation
Source text: as §1, §2, §4

B16-F10 melanoma = type: in vivo; conditions: B16-F10 tumor-bearing C57BL/6 mice
Method: FIGS. 1A-1B are schematic diagrams of B16-F10 melanoma experiments. The right flank of the mouse was administrated with SEQ ID NO:9, and the left flank of the mouse was untreated (tumor only) in FIG. 1A. […] (3×10^6B16-F10 cells per mouse/50 μl RPMI-1640). Palpable tumors (20-30 mm^3) were injected […] (IT.) with single doses of SEQ ID NO:9 dissolved in PBS (1.0 mg peptide/50 μl PBS) once a day for 5 consecutive days, and the vehicle control was saline only (0.9% NaCl).
(§5) Female C57BL/6 mice (4- to 6-week old) as allogeneic model animals were purchased from BioLASCO Taiwan Co., Ltd. and maintained in a specific pathogen-free and controlled environment. During the experiments, female mice, weighing 18.0-24.0 g each, were kept in groups of 4 to 6 animals per cage under climate-controlled conditions, with 12 h light/dark cycles and an ambient temperature. The mice were housed in an enriched individually ventilated cage (IVC) system with free access to standard rodent chow and water ad libitum. The animals were anesthetized during the experimental procedures with 2.5% isoflurane gas. The animals were monitored daily. All procedures were conducted according to the regulations of Laboratory Animal Care and Use Committee or Group Setup and Management and the law of Animal Protection.
Palpable tumors (for example, 20-30 mm^3 for B16-F10 tumor-bearing mice, 100 mm^3 for MN-11 tumor-bearing mice, 75 mm^3 for E0771 tumor-bearing mice) were injected (IT.) with single doses of SEQ ID NO:9 dissolved in PBS (1.0 mg peptide/50 μl PBS) once a day for 5 consecutive days, and the vehicle control was saline only (0.9% NaCl).
Tumor size was measured 3 times a week using a caliper, and the volume of tumors was calculated using the following formula: Tumor size (mm^3)=0.5×(width^2×length). The results were shown as volume±SEM. The survival rates of tumor-bearing mice were observed and recorded continuously until all animals died.
To evaluate the effect of SEQ ID NO:9 in vivo, the B16-F10 allogeneic model was used in C57BL/6 mice (FIGS. 1A-1B). […]

[5] = test system: HCT-15 (Human colorectal cancer); experiment: MTT cytotoxicity, HCT-15; type: cell-based; conditions: HCT-15, 24 hours incubation
Source text: as §1, §2, §4

[6] = test system: NCI-N87 (Human gastric carcinoma); experiment: MTT cytotoxicity, NCI-N87; type: cell-based; conditions: NCI-N87, 24 hours incubation
Source text: as §1, §2, §4

[7] = test system: HUVEC (Human Umbilical Vein Endothelial (Cell)); experiment: MTT cytotoxicity, HUVEC; type: cell-based; conditions: 24 hours incubation
Source text: as §1, §2, §4

[8] = test system: A549 (Human non-small cell lung cancer cell); experiment: MTT cytotoxicity, A549; type: cell-based; conditions: A549, 24 hours incubation
Source text: as §1, §2, §3, §4

[9] = test system: SAS (Human tongue carcinoma); experiment: MTT cytotoxicity, SAS; type: cell-based; conditions: 24 hours incubation
Source text: as §1, §2, §4

Panc02 = experiment: MTT cytotoxicity, Panc02; type: cell-based, murine; conditions: Panc02, 24 hours incubation
Source text: as §1, §2, §3, §4

[10] = test system: Hepa I-6 (Murine hepatocellular carcinoma); experiment: MTT cytotoxicity, Hepa 1-6; type: cell-based; conditions: Hepa I-6, 24 hours incubation
Source text: as §1, §2, §3, §4

E0771 breast cancer = type: in vivo; conditions: E0771 tumor-bearing C57BL/6 mice
Method: FIGS. 7A-7B are schematic diagrams of E0771 breast cancer experiments. FIG. 7A: The right flank of the mouse was administrated with SEQ ID NO:9. […] (2×10^5E0771 cells per mouse/50 μl RPMI-1640). Palpable tumors (75 mm^3) were injected (IT.) with single doses of SEQ ID NO:9 dissolved in PBS (1.0 mg peptide/50 μl PBS) once a day for 5 consecutive days, and the vehicle control was saline only (0.9% NaCl).
as §5, with “All procedures were conducted according to the regulations of Laboratory Animal Care and Use Committee or Group Setup and Management and the law of Animal Protection.” left out
Tumor size was measured 3 times a week using a caliper, and the volume of tumors was calculated using the following formula: Tumor size (mm^3)=0.5×(width^2×length). […] The survival rates of tumor-bearing mice were observed and recorded continuously until all animals died. […]

[11] = IT. 1.0 mg once a day for 5 days, vs untreated controls
[12] = IT. 1.0 mg peptide/50 μl PBS once a day for 5 consecutive days, vs saline control

Question: For CC(C)C[C@H](NC(=O)[C@H](Cc1ccc2ccccc2c1)NC(=O)[C@H](CCCCN)NC(=O)[C@H](CC(C)C)NC(=O)[C@H](Cc1c[nH]c2ccccc12)NC(=O)[C@H](CCCCN)NC(=O)[C@H](CCCNC(=N)N)NC(=O)[C@H](Cc1c[nH]c2ccccc12)NC(=O)[C@H](CCCNC(=N)N)NC(=O)[C@H](CCCNC(=N)N)NC(=O)[C@H](CCCCN)NC(=O)[C@H](CCCCN)NC(=O)[C@H](CCCCN)NC(=O)[C@@H](N)CCCCN)C(=O)N[C@@H](C)C(=O)N[C@@H](CCCCN)C(N)=O [SEQ ID NO: 9, KKKK-RR-WRK-WLK-Nal-LA-K-NH2] (HELM PEPTIDE1{K.K.K.K.R.R.W.R.K.W.L.K.[O=C([C@H](Cc1ccc2ccccc2c1)N[*:1])[*:2]].L.A.K.[am]}$$$$V2.0; N-terminus assumed), which IC50 [1] is on record?
Answer: The IC50 was 2.01 µM.

Question: What about the IC50 [2] of the same compound?
Answer: The IC50 was 7.16 µM.

Question: And the IC50 (RBC (Human blood cell))?
Answer: Its IC50 is 25.7 µM.

Question: What about the IC50 [3] of the same compound?
Answer: Its IC50 is 3.84 µM.

Question: What about the IC50 [4] of the same compound?
Answer: The IC50 was 6.43 µM.

Question: What about the “Survival (lifespan)” value (B16-F10 melanoma; [11]) of the same compound?
Answer: Its value is “extended the lifespan”.

Question: What about the “Tumor growth, treated tumor (right flank)” value (B16-F10 melanoma; [12]) of the same compound?
Answer: Its value is “significantly inhibited tumor growth”.

Question: What about the “Tumor growth, distal tumor (left side)” value (B16-F10 melanoma; untreated left flank, peptide IT. into right flank 1.0 mg once a day for 5 days) of the same compound?
Answer: Its value is “also inhibited”.

Question: What about the IC50 [5] of the same compound?
Answer: Its IC50 is 2.42 µM.

Question: And the IC50 [6]?
Answer: The IC50 was 2.35 µM.

Question: And the IC50 [7]?
Answer: The IC50 was 6.32 µM.

Question: What about the IC50 [8] of the same compound?
Answer: The IC50 was 2.79 µM.

Question: And the IC50 [9]?
Answer: Its IC50 is 6.03 µM.

Question: What about the IC50 (Panc02) of the same compound?
Answer: Its IC50 is 2.66 µM.

Question: What about the IC50 [10] of the same compound?
Answer: Its IC50 is 1.69 µM.

Question: What about the “Survival (lifespan)” value (E0771 breast cancer; [11]) of the same compound?
Answer: The value was “extended the lifespan”.

Question: What about the “Tumor growth, treated tumor (right flank)” value (E0771 breast cancer; [12]) of the same compound?
Answer: Its value is “significantly inhibited tumor growth”.
